# Measured values: patent publication US10208033B2, “β-carboline, dihydro-β-carboline and tetrahydro-β-carboline alkaloid derivatives and preparation methods same and use in aspects of preventing and treating plant viruses, fungicides and insecticides” (NANKAI UNIVERSITY, priority 2013, dated 2019)
# Key:
# Fusarium fujikuroi = test: Fungicidal (bactericidal) activity in vitro, PDA colony diameter; format: cell-based; conditions: 50 mg/kg
# Botrytis cinerea = test: as above; format: cell-based; conditions: 50 mg/kg
# mosquito larvae = test: whole plant or invertebrate; conditions: 24 h; for mortality at 10 mg/kg: Culex pipiens, read-out: Mosquito larvae Mortality (%); for Mosquito larvae Mortality (%): concentration 10 mg/kg
# How it was run: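 Early fourth-instar Culex pipiens pallens larvae from an indoor colony, 10 per beaker, exposed to test compound at 5 ppm in water, diluted from a 1000 ppm acetone mother solution. Blank: water containing 0.5 mL test solvent.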
# cucumber fusarium wilt = test: Fungicidal (bactericidal) activity in vitro, PDA colony diameter; format: cell-based; conditions: 50 mg/kg
# Bipolaria maydis = test: organism not typed; format: cell-based; conditions: for Bactericidal activity (%) Bipolaria maydis: 50 mg/kg
# Fusarium graminearumt = test: microbe, parasite or virus in culture; format: cell-based; conditions: for Bactericidal activity (%) Fusarium graminearumt: 50 mg/kg
# [1] = tested on: tobacco mosaic virus (TMV); test: Anti-TMV in vivo protective effect; parameters: species or system tobacco mosaic virus (host Nicotiana tabacum L.cv.Xanthi NN); conditions: for inhibition at 100 µg/mL / inhibition at 500 µg/mL: Tobacco mosaic virus, read-out: Relative inhibition rate (%) In vivo protection
# Phytophthora capsici = test: Fungicidal (bactericidal) activity in vitro, PDA colony diameter; format: cell-based; conditions: 50 mg/kg
# [2] = tested on: Colletotrichum orbiculare; test: as above; format: cell-based; conditions: 50 mg/kg
# Macrophoma kawatsukai = test: as above; format: cell-based; conditions: 50 mg/kg
# Cercospora arachidicola = test: as above; format: cell-based; conditions: 50 mg/kg
# corn borers [3] = test: whole plant or invertebrate; conditions: read-out: Corn borer Mortality (%)
# [4] = tested on: tobacco mosaic virus (TMV); test: Anti-TMV activity, overall statements on Table 1; format: in vivo, tobacco mosaic virus (host Nicotiana tabacum L.cv.Xanthi NN); conditions: 100 μg/mL versus ningnanmycin at 100 μg/mL
# armyworms = format: in vivo; conditions: concentration 600 mg/kg
# [5] = tested on: tobacco mosaic virus (TMV); test: Anti-TMV in vivo therapeutic effect; parameters: species or system tobacco mosaic virus (host Nicotiana tabacum L.cv.Xanthi NN); conditions: for inhibition at 100 µg/mL / inhibition at 500 µg/mL: Tobacco mosaic virus, read-out: Relative inhibition rate (%) In vivo therapy
# [6] = tested on: tobacco mosaic virus (TMV); test: Anti-TMV in vivo inactivation; parameters: species or system tobacco mosaic virus (host Nicotiana tabacum L.cv.Xanthi NN); conditions: for inhibition at 100 µg/mL / inhibition at 500 µg/mL: Tobacco mosaic virus, read-out: Relative inhibition rate (%) In vivo inactivation
# [7] = tested on: tobacco mosaic virus (TMV); test: Anti-TMV in vitro effect (half-leaf soaking); format: cell-based, tobacco mosaic virus (host Nicotiana tabacum L.cv.Xanthi NN); conditions: for inhibition at 100 µg/mL / inhibition at 500 µg/mL: Tobacco mosaic virus, read-out: Relative inhibition rate (%) In vitro activity
# Alternaria solani = test: Fungicidal (bactericidal) activity in vitro, PDA colony diameter; format: cell-based; conditions: 50 mg/kg
# Rhizoctonia cereali = test: as above; format: cell-based; conditions: 50 mg/kg
# Rhizoctonia solani = test: as above; format: cell-based; conditions: 50 mg/kg
# Sclerotinia scleotiorum = test: as above; format: cell-based; conditions: 50 mg/kg
# cotton bollworms = test: whole plant or invertebrate; conditions: for mortality at 600 mg/kg: Helicoverpa armigera, in Gossypium hirsutum, read-out: Cotton bollworm Mortality (%); for Cotton bollworm Mortality (%): concentration 600 mg/kg
# Procedure: Experimental method of cotton bollworms: feed and drug mixing method: measure 3 mL of prepared solution and add it to about 27 g of newly prepared feed, thereby obtaining needed concentration through dilution by 10 times.
# potato late blight = test: microbe, parasite or virus in culture; format: cell-based
# corn borers [8] = conditions: concentration 600 mg/kg
compound,measurement,setting,value
CC1=NCCc2c1[nH]c1ccccc21 [Harmalan],inhibition of growth at 50 mg/kg,"Fusarium fujikuroi; Fusarium fujikuroi, 96 h",28.6%
same,inhibition of growth at 50 mg/kg,"Botrytis cinerea; Botrytis cinerea, 96 h",15.2%
same,mortality at 10 mg/kg,mosquito larvae,35%
same,inhibition of growth at 50 mg/kg,"cucumber fusarium wilt; Fusarium, 96 h",23.1%
same,inhibition at 50 mg/kg,Bipolaria maydis; read-out: Bactericidal activity (%) Bipolaria maydis,27.3%
same,inhibition of growth at 50 mg/kg,"Fusarium graminearumt; Fusarium, 96 h, read-out: Bactericidal activity (%) Fusarium graminearumt",21.4%
same,inhibition at 100 µg/mL,[1]; treatment dose 100 μg/mL,35.6%
same,inhibition at 500 µg/mL,[1]; treatment dose 500 μg/mL,60.3%
same,inhibition of growth at 50 mg/kg,"Phytophthora capsici; Phytophthora capsici, 96 h",0%
same,inhibition of growth at 50 mg/kg,"[2]; Colletotrichum orbiculare, 96 h",25%
same,inhibition at 50 mg/kg,Macrophoma kawatsukai,2.4%
same,inhibition of growth at 50 mg/kg,"Cercospora arachidicola; Mycosphaerella arachidis, 96 h",76.9%
same,mortality at 600 mg/kg,corn borers [3],15%
same,anti-TMV activity compared with ningnanmycin,[4],equivalent to the activity of commercial variety ningnanmycin
same,Armyworm Mortality (%),armyworms,20%
same,inhibition at 100 µg/mL,[5]; treatment dose 100 μg/mL,34.8%
same,inhibition at 500 µg/mL,[5]; treatment dose 500 μg/mL,55.1%
same,inhibition at 100 µg/mL,[6]; treatment dose 100 μg/mL,32.7%
same,inhibition at 500 µg/mL,[6]; treatment dose 500 μg/mL,62.3%
same,inhibition at 100 µg/mL,[7]; treatment dose 100 μg/mL,30%
same,inhibition at 500 µg/mL,[7]; treatment dose 500 μg/mL,58.6%
same,inhibition of growth at 50 mg/kg,"Alternaria solani; Alternaria solani, 96 h",26.3%
same,inhibition of growth at 50 mg/kg,"Rhizoctonia cereali; Rhizoctonia, 96 h",55.3%
same,inhibition of growth at 50 mg/kg,"Rhizoctonia solani; Rhizoctonia solani, 96 h",19.7%
same,inhibition of growth at 50 mg/kg,"Sclerotinia scleotiorum; Sclerotinia, 96 h",19.6%
same,mortality at 600 mg/kg,cotton bollworms,10%
same,inhibition of growth at 50 mg/kg,"potato late blight; Phytophthora infestans, 96 h, read-out: Bactericidal activity (%) potato late blight",31.8%
"C[C@@H]1N[C@H](C(=O)NNC(=O)C(C)(C)C)Cc2c1[nH]c1ccccc21 [Id-6, (1S, 3S)—N′-tert-valeryl-1-methyl-2,3,4,9-tetrahydropyridino [3,4-b] indol-3-formylhydrazine]",Bactericidal activity (%) Fusarium fujikuroi,Fusarium fujikuroi,29.4%
same,Bactericidal activity (%) Botrytis cinerea,Botrytis cinerea,50.0%
same,Mosquito larvae Mortality (%),mosquito larvae,65%
same,Bactericidal activity (%) Cucumber fusarium wilt,cucumber fusarium wilt,4.5%
same,Bactericidal activity (%) Bipolaria maydis,Bipolaria maydis,20.0%
same,Bactericidal activity (%) Fusarium graminearumt,Fusarium graminearumt,30.8%
same,Relative inhibition rate (%) In vivo protection,[1]; treatment dose 100 μg/mL,16.9%
same,Relative inhibition rate (%) In vivo protection,[1]; treatment dose 500 μg/mL,47.5%
same,Bactericidal activity (%) Phytophthora capsici,Phytophthora capsici,12.1%
same,Bactericidal activity (%) Colletotrichum orbiculare,[2],24.0%
same,Bactericidal activity (%) Macrophoma kawatsukai,Macrophoma kawatsukai,42.4%
same,Bactericidal activity (%) Cercospora arachidicola,Cercospora arachidicola,9.1%
same,anti-TMV activity compared with ningnanmycin,[4],equivalent to the activity of commercial variety ningnanmycin
same,Corn borer Mortality (%),corn borers [8],50%
same,Armyworm Mortality (%),armyworms,35%
same,Relative inhibition rate (%) In vivo therapy,[5]; treatment dose 100 μg/mL,14.2%
same,Relative inhibition rate (%) In vivo therapy,[5]; treatment dose 500 μg/mL,42.1%
same,Relative inhibition rate (%) In vivo inactivation,[6]; treatment dose 100 μg/mL,12.8%
same,Relative inhibition rate (%) In vivo inactivation,[6]; treatment dose 500 μg/mL,44%
same,Relative inhibition rate (%) In vitro activity,[7]; treatment dose 100 μg/mL,8.9%
same,Relative inhibition rate (%) In vitro activity,[7]; treatment dose 500 μg/mL,45.7%
same,Bactericidal activity (%) Alternaria solani,Alternaria solani,14.3%
same,Bactericidal activity (%) Rhizoctonia cereali,Rhizoctonia cereali,10.8%
same,Bactericidal activity (%) Rhizoctonia solani,Rhizoctonia solani,5.6%
same,Bactericidal activity (%) Sclerotinia scleotiorum,Sclerotinia scleotiorum,17.3%
same,Cotton bollworm Mortality (%),cotton bollworms,25%
same,Bactericidal activity (%) potato late blight,potato late blight,26.1%
"C[C@@H]1N[C@H](C(=O)NNC(=O)C2CCCC2)Cc2c1[nH]c1ccccc21 [Id-7, (1S, 3S)—N′-(cyclopentyl formyl)-1-methyl-2,3,4,9-tetrahydropyridino [3,4-b] indol-3-formylhydrazine]",Bactericidal activity (%) Fusarium fujikuroi,Fusarium fujikuroi,29.4%
same,Bactericidal activity (%) Botrytis cinerea,Botrytis cinerea,50.0%
same,Mosquito larvae Mortality (%),mosquito larvae,80%
same,Bactericidal activity (%) Cucumber fusarium wilt,cucumber fusarium wilt,9.1%
same,Bactericidal activity (%) Bipolaria maydis,Bipolaria maydis,28.0%
same,Bactericidal activity (%) Fusarium graminearumt,Fusarium graminearumt,15.4%
same,Relative inhibition rate (%) In vivo protection,[1]; treatment dose 100 μg/mL,26.6%
same,Relative inhibition rate (%) In vivo protection,[1]; treatment dose 500 μg/mL,53.9%
same,Bactericidal activity (%) Phytophthora capsici,Phytophthora capsici,15.2%
same,Bactericidal activity (%) Colletotrichum orbiculare,[2],16.0%
same,Bactericidal activity (%) Macrophoma kawatsukai,Macrophoma kawatsukai,33.3%
same,Bactericidal activity (%) Cercospora arachidicola,Cercospora arachidicola,9.1%
same,anti-TMV activity compared with ningnanmycin,[4],equivalent to the activity of commercial variety ningnanmycin
same,Corn borer Mortality (%),corn borers [8],40%
same,Armyworm Mortality (%),armyworms,40%
same,Relative inhibition rate (%) In vivo therapy,[5]; treatment dose 100 μg/mL,18.6%
same,Relative inhibition rate (%) In vivo therapy,[5]; treatment dose 500 μg/mL,51.4%
same,Relative inhibition rate (%) In vivo inactivation,[6]; treatment dose 100 μg/mL,20.3%
same,Relative inhibition rate (%) In vivo inactivation,[6]; treatment dose 500 μg/mL,42.4%
same,Relative inhibition rate (%) In vitro activity,[7]; treatment dose 100 μg/mL,22.2%
same,Relative inhibition rate (%) In vitro activity,[7]; treatment dose 500 μg/mL,47.2%
same,Bactericidal activity (%) Alternaria solani,Alternaria solani,9.5%
same,Bactericidal activity (%) Rhizoctonia cereali,Rhizoctonia cereali,29.7%
same,Bactericidal activity (%) Rhizoctonia solani,Rhizoctonia solani,1.4%
same,Bactericidal activity (%) Sclerotinia scleotiorum,Sclerotinia scleotiorum,7.7%
same,Cotton bollworm Mortality (%),cotton bollworms,30%
same,Bactericidal activity (%) potato late blight,potato late blight,21.7%
CC1NCCc2c1[nH]c1ccccc21 (stereo not shown) [Tetrahydroharmane],mortality at 10 mg/kg,mosquito larvae,30%
same,inhibition at 100 µg/mL,[1]; treatment dose 100 μg/mL,24.6%
same,inhibition at 500 µg/mL,[1]; treatment dose 500 μg/mL,59.5%
same,mortality at 600 mg/kg,corn borers [3],10%
same,anti-TMV activity compared with ningnanmycin,[4],equivalent to the activity of commercial variety ningnanmycin
same,Armyworm Mortality (%),armyworms,15%
same,inhibition at 100 µg/mL,[5]; treatment dose 100 μg/mL,20.4%
same,inhibition at 500 µg/mL,[5]; treatment dose 500 μg/mL,57.2%
same,inhibition at 100 µg/mL,[6]; treatment dose 100 μg/mL,23.5%
same,inhibition at 500 µg/mL,[6]; treatment dose 500 μg/mL,64.2%
same,inhibition at 100 µg/mL,[7]; treatment dose 100 μg/mL,28.4%
same,inhibition at 500 µg/mL,[7]; treatment dose 500 μg/mL,63.7%
same,mortality at 600 mg/kg,cotton bollworms,15%
